Data from PubChem BioAssay AID1918953 (Molecular Pharmacology Branch, DTP, NCI, 2023).

System: MDA-MB-231 complex spheroid viability
Assay: Anticancer human tumor MDA-MB-231/ATCC cell line growth inhibition;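 further: drug exposure lasted 7 days starting on day 3 of spheroid growth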
Details: for IC50: curve of first compound; for viability, T/C: stronger effect = lower value
Summary of the method: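 Complex spheroids of tumor cells with HUVEC and human MSCs, exposed to iadademstat combined with other agents. Each agent tested in half-log steps from near clinical Cmax (else 10 microM top), DMSO ≤0.25%.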

[1] = second compound 0.1 µM, first compound 0.0316 µM
[2] = second compound 0.1 µM, first compound 0.1 µM
[3] = second compound 0.1 µM, first compound 0.316 µM
[4] = second compound 0.1 µM, first compound 1 µM
[5] = second compound 0.1 µM, first compound 3.16 µM
[6] = second compound 0.1 µM, first compound 10 µM
[7] = second compound 0.316 µM, first compound 0.0316 µM
[8] = second compound 0.316 µM, first compound 0.1 µM
[9] = second compound 0.316 µM, first compound 0.316 µM
[10] = second compound 0.316 µM, first compound 1 µM
[11] = second compound 0.316 µM, first compound 3.16 µM
[12] = second compound 0.316 µM, first compound 10 µM
[13] = second compound 1 µM, first compound 0.0316 µM
[14] = second compound 1 µM, first compound 0.1 µM
[15] = second compound 1 µM, first compound 0.316 µM
[16] = second compound 1 µM, first compound 1 µM
[17] = second compound 1 µM, first compound 3.16 µM
[18] = second compound 1 µM, first compound 10 µM
[19] = second compound 3.16 µM, first compound 0.0316 µM
[20] = second compound 3.16 µM, first compound 0.1 µM
[21] = second compound 3.16 µM, first compound 0.316 µM
[22] = second compound 3.16 µM, first compound 1 µM
[23] = second compound 3.16 µM, first compound 3.16 µM
[24] = second compound 3.16 µM, first compound 10 µM
[25] = second compound 10 µM, first compound 0.0316 µM
[26] = second compound 10 µM, first compound 0.1 µM
[27] = second compound 10 µM, first compound 0.316 µM
[28] = second compound 10 µM, first compound 1 µM
[29] = second compound 10 µM, first compound 3.16 µM
[30] = second compound 10 µM, first compound 10 µM

| Compound | IC50 (second compound 0.1 µM) [µM] | IC50 (second compound 0.316 µM) [µM] | IC50 (second compound 1 µM) [µM] | IC50 (second compound 3.16 µM) [µM] | IC50 (second compound 10 µM) [µM] | viability, T/C [1] [%] | viability, T/C [2] [%] | viability, T/C [3] [%] | viability, T/C [4] [%] | viability, T/C [5] [%] | viability, T/C [6] [%] | viability, T/C [7] [%] | viability, T/C [8] [%] | viability, T/C [9] [%] | viability, T/C [10] [%] | viability, T/C [11] [%] | viability, T/C [12] [%] | viability, T/C [13] [%] | viability, T/C [14] [%] | viability, T/C [15] [%] | further results |
| --- | --- | --- | --- | --- | --- | --- | --- | --- | --- | --- | --- | --- | --- | --- | --- | --- | --- | --- | --- | --- | --- |
| CC1(C)CCC(CN2CCN(c3ccc(C(=O)NS(=O)(=O)c4ccc(NCC5CCOCC5)c([N+](=O)[O-])c4)c(Oc4cnc5[nH]ccc5c4)c3)CC2)=C(c2ccc(Cl)cc2)C1 + NC1CC1c1ccc(-c2cccc(O)c2)cc1 | 4.48 | 4.29 | 4.43 | 4.28 | < 0.0316 | 90.9 | 93 | 94.5 | 112 | 71.2 | 1.41 | 74.1 | 78.6 | 82.1 | 77.9 | 67.6 | 1.16 | 75.2 | 70 | 76.7 | viability, T/C [16]: 80.5%; viability, T/C [17]: 70%; viability, T/C [18]: 1.72%; viability, T/C [19]: 68.2%; viability, T/C [20]: 70.2%; viability, T/C [21]: 78.8%; viability, T/C [22]: 79.4%; viability, T/C [23]: 67.1%; viability, T/C [24]: 1.48%; viability, T/C [25]: 48.5%; viability, T/C [26]: 42.5%; viability, T/C [27]: 48.5%; viability, T/C [28]: 55.3%; viability, T/C [29]: 45.6%; viability, T/C [30]: 0.6% |
| CC1COCCN1c1cc(C2(S(C)(=N)=O)CC2)nc(-c2ccnc3[nH]ccc23)n1 (stereo not given) + NC1CC1c1ccc(-c2cccc(O)c2)cc1 | 0.952 | 0.749 | 0.537 | 0.832 | 0.49 | 90.7 | 90.3 | 87 | 47.6 | 31.5 | 22.4 | 71.7 | 74.8 | 74.5 | 42 | 23.3 | 20.3 | 53.6 | 68.1 | 57.4 | viability, T/C [16]: 40.4%; viability, T/C [17]: 23.9%; viability, T/C [18]: 20.9%; viability, T/C [19]: 72.4%; viability, T/C [20]: 80.1%; viability, T/C [21]: 72.7%; viability, T/C [22]: 45.6%; viability, T/C [23]: 23%; viability, T/C [24]: 21.1%; viability, T/C [25]: 57.1%; viability, T/C [26]: 59.7%; viability, T/C [27]: 56.4%; viability, T/C [28]: 40.1%; viability, T/C [29]: 23.6%; viability, T/C [30]: 18.7% |
